# Several values for one entry are separate records, joined by “and”; a condition that tells them apart may be missing. Identical values can stand only once.
# Key:
# [1] = PBPK parameter estimation in Simcyp (retrograde modeling, QGut, Peff, F, Fg, CLAdd); parameters: species or system human; details: for CLint,CYP2C19 / CLint,CYP2D6 / CLint,CYP3A4: retrograde modeling, healthy subjects
# Description: Using the retrograde modeling tool provided within Simcyp®, the intrinsic enzyme clearance (CLint) values were optimized by minimizing the differences between the model-predicted and clinically observed dose-normalized AUCinf (see Supplemental Material SM2—Metabolism Parameters), with the fractions of metabolism of CYP3A4 (fmCYP3A4) and additional hepatic enzymes (fmHLM,add) refined by the parameter sensitivity analysis on accumulation ratio for repeated-dose clinical studies (see Supplemental Material SM8). The renal clearance (CLR) and additional systemic clearance (CLadd) were provided as input parameters estimated from the clinical data (see Supplemental Material SM2—Excretion Parameters). The PBPK distribution parameters (including Vss, Vsac, and Q) were directly derived from the compartmental modeling of plasma PK data obtained from healthy subjects administered 500 mg fedratinib single doses, and then provided as input parameters without further modifications (see Supplemental Material SM2—Distribution Parameters).
# By default, the QGut is set to be the mean value (i.e., 6.5 L/h) in the PBPK model of fedratinib.
# As CYP3A4 is the dominant form of CYP3A in the liver, all metabolic contribution from CYP3A was assigned to CYP3A4 in this PBPK model. The default “Healthy Volunteers” population was used for the retrograde modeling. […] The Fg value required for retrograde modeling was initially set as default 1 and then adjusted to ~0.8 based on model prediction. […] The clearance values derived above for fedratinib in healthy subjects were assumed to be the same for cancer patients including myelofibrosis (MF) patients and patients with refractory solid tumors.
# The biliary excretion of unchanged drug accounts for 2.3% of the total intravenous dose in bile-duct cannulated (BDC) rats.
# CYP2C8 = target: T1, CYP2C8 (Homo sapiens, UniProt P10632); assay: CYP inhibition in human liver microsomes (MIH0887), CYP2C8; type: in vitro ADME; details: HLM, apparent Ki, reversible inhibition
# T1 construct: from tissue; host or cells: human liver microsomes
# T1 sequence (P10632 1-490): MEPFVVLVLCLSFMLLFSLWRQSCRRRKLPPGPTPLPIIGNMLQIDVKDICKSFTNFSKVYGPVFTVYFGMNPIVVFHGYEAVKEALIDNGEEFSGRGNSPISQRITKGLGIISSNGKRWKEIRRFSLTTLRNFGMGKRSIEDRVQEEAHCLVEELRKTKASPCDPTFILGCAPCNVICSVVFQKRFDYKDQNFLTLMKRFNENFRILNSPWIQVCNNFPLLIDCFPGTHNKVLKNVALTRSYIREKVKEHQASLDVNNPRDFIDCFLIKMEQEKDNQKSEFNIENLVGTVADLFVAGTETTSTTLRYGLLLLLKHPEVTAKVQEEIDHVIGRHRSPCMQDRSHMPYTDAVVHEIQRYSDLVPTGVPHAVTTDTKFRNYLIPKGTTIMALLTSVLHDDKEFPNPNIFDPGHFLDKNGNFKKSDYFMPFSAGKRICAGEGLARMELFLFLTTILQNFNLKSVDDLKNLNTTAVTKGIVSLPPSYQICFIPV
# Procedure: The CYP enzyme reverse inhibition and mechanism-based inhibition (MBI) parameters were estimated in the human liver microsome (HLM) incubation in vitro studies. The reported reversible inhibition parameter (i.e., apparent Ki) values for CYP2C8, CYP2C9, and CYP2D6, along with the MBI parameters (i.e., KI or Kapp and kinact) for CYP2C19 and CYP3A4, were supplied to the PBPK DDI model (see Table 2).
# OCT1 = target: T2, OCT1 (Homo sapiens, UniProt O15245); assay: OCT1 inhibition, CHO-hOCT1 cells (TRI0013); type: in vitro ADME
# T2 construct: expressed in transfected cells; host or cells: CHO^Fi-hOCT1
# T2 sequence (O15245 1-554): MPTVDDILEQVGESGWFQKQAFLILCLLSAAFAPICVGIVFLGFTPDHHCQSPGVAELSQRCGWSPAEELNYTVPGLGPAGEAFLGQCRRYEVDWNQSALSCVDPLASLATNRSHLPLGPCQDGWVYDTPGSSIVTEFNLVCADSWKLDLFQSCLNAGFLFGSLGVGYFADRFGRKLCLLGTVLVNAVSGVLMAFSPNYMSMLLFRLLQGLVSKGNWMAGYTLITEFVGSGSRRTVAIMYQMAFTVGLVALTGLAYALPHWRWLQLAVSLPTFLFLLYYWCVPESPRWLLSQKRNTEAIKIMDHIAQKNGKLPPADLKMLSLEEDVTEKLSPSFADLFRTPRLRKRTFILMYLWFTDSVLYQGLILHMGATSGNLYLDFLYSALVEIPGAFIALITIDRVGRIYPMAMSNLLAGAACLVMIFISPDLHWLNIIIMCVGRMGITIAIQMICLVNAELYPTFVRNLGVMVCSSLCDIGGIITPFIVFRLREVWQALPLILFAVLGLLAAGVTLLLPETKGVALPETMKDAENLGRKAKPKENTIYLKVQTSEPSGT
# Description: The reported IC50 values were converted to Ki values using the Cheng-Prusoff equation [10]:
# The transporter inhibition parameters (Ki) for fedratinib were derived from the experimentally determined IC50 values using the Cheng-Prusoff equation, i.e., Ki = IC50/(1+[S]/Km) with the substrate concentrations ([S]) reported in the experimental studies and the substrate Km values collected from literature, as summarized in Table 13.
structure (smiles),measurement,setting,value
Cc1cnc(Nc2ccc(OCCN3CCCC3)cc2)nc1Nc1cccc(S(=O)(=O)NC(C)(C)C)c1 [Fedratinib],clearance,"[1]; human, oral, read-out: CLAdd (additional systemic clearance) (converted)",~11.2 mL/min
same,biliary excretion percentage assumed in humans,"[1]; oral dose, assumed from rat data",~ 2%
same,"CLint,CYP2C19",[1],1.25 mL/min/pmol of isoform
same,"CLint,CYP2D6",[1],0.258 mL/min/pmol of isoform
same,"CLint,CYP3A4",[1],0.610 mL/min/pmol of isoform
same,"CLint,CYP2C19",[1]; listed as fedratinib,1.25 μL/min/pmol of isoform and 1.253 μL/min/pmol of isoform
same,"CLint,CYP2D6",[1]; listed as fedratinib,0.258 μL/min/pmol of isoform
same,"CLint,CYP3A4",[1]; listed as fedratinib,0.610 μL/min/pmol of isoform
same,CLpo used for retrograde calculation,[1]; updated so that predicted dose-normalized AUC agrees with observation,48 L/h
same,Ki,CYP2C8,50.4 µM
same,Ki,"OCT1; from IC50 by Cheng-Prusoff, probe TEA",5.59 µM
same,IC50,OCT1; probe TEA 25 μM,6.06 µM

# — publication PMC7515950, “Physiologically based pharmacokinetic modeling to assess metabolic drug–drug interaction risks and inform the drug label for fedratinib” (Cancer Chemotherapy and Pharmacology, 2020)
